Experimental findings from patent publication US7803801B2, “Aminopyridine compounds having Syk inhibitory activity” (Japan Tobacco, Inc., priority 2005, dated 2010) are described below.

SMILES strings stand for the structures. Counter-ions that a name gives are not always drawn. Where only a bound is given, the exact number is not on record here.

The target of this test is GST-Syk Full Protein (human) (Homo sapiens, UniProt P43405). As to the kind of experiment: Syk kinase inhibition test (HTRF method). The format is biochemical. The note with it: Tables 1-x, compounds A; read-out: sykHTRF ave IC50. The method, then:
Syk Kinase Inhibition Test (HTRF Method)
After the compounds were serially diluted with dimethylsulfoxide (DMSO), 10 μL of those 10-fold diluted with kinase buffer (20 mM HEPES pH 7.0, 10 mM MgCl2, 50 mM NaCl, 1 mM 2-ME, 0.05% BSA) was added to opti-plate HTRF-96 (Packard) (final DMSO concentration: 2%). 20 μL of a substrate solution (kinase buffer as mentioned above containing Syk Specific-Peptide Substrate Biot-EDPDYEWPSA-NH2 (Peptide Laboratory) 625 nM, 250 μM ATP (SIGMA) was added (final substrate concentration 250 nM, 100 μM ATP), and further 20 μL of an enzyme solution (kinase buffer as mentioned above containing GST-Syk Full Protein (human) 16 nM) (final concentration 6.4 nM) was added and the mixture was immediately stirred with a plate shaker to start enzyme reaction. After reacted at room temperature (20 to 25° C.) for 30 minutes, the enzyme reaction was terminated by adding 100 μL/well of a buffer for terminating and detecting the reaction (30 mM HEPES pH 7.0, 150 mM KF, 0.15% BSA, 0.075% Tween-20, 75 mM EDTA) containing HTRF reagent (5 μg/ml XL665-Streptavidin (CIS bio), 170 ng/ml Eu(K)-anti-PhosphoTyrosin, PT-66 (CIS bio)) (final concentration 20 mM HEPES pH 7.0, 100 mM KF, 0.1% BSA, 0.05% Tween-20, 50 mM EDTA). After allowed to stand still at room temperature for 1 hour, inhibitory effect of a compound against Syk kinase enzymatic activity was evaluated by measuring 665/620 fluorescence ratio to excitation light at 337 nm by ARVO (Wallac).
For `Cc1ccnc(Nc2cccc(-c3cnc(N(C)C4CCN(C(=O)N(C)C)CC4)s3)n2)c1` [Compound A-511, N,N-dimethyl-4-(N′-methyl-N′-{5-[6-(4-methylpyridin-2-ylamino)pyridin-2-yl]thiazol-2-yl}amino)piperidine-1-carboxamide], the IC50 was < 100 nM.

In the case of `Cc1ccnc(Nc2cccc(-c3cnc(N(C)C4CCN(C(=O)C5CC5)CC4)s3)n2)c1` [Compound A-512], the half-inhibitory concentration (IC50) lay in the range of 100 to 1000 nM.

`CC(=O)NCCN(c1ncc(-c2cccc(Nc3cc(C)ccn3)n2)s1)C1CCN(C(C)=O)CC1` [Compound A-521]: the IC50 lay in the range of 100 to 1000 nM.

`COC(=O)NCCN(c1ncc(-c2cccc(Nc3cc(C)ccn3)n2)s1)C1CCN(C(C)=O)CC1` [Compound A-522]: the IC50 was 100 to 1000 nM.

On to `CC(=O)N1CCC(N(CCNC(=O)N(C)C)c2ncc(-c3cccc(Nc4cc(C)ccn4)n3)s2)CC1` [Compound A-523], for which the IC50 is 100 to 1000 nM.

For the molecule `Cc1ccnc(Nc2cccc(-c3cnc(N4CCC[C@H]4C(=O)O)s3)n2)c1` [Compound A-527], the IC50 lay within 100 to 1000 nM.

As to `CN(CCO)c1ncc(-c2cccc(Nc3cc(CC(=O)O)ccn3)n2)s1` [Compound A-550], the IC50 lay in the range of 100 to 1000 nM.

As to `Cc1ccnc(Nc2cccc(-c3cnc(N(C)CC(=O)O)s3)n2)c1` [Compound A-555], the 50% inhibitory concentration (IC50) was 100 to 1000 nM.

`O=C(O)Cc1ccnc(Nc2cccc(-c3cnc(N4CC[C@@H](O)C4)s3)n2)c1` [Compound A-557]: the half-maximal inhibitory concentration (IC50) was 100 to 1000 nM.

For the molecule `NC(=O)[C@@H]1CCCN1c1ncc(-c2cccc(Nc3cc(CC(=O)O)ccn3)n2)s1` [Compound A-559], the IC50 was in the range of 100 to 1000 nM.

As for `Cc1ccnc(Nc2cccc(-c3cnc(N4CCC[C@H]4C(=O)N[C@@H](C)C(=O)O)s3)n2)c1` [Compound A-566], the IC50 was in the range of 100 to 1000 nM.

Take `Cc1ccnc(Nc2cccc(-c3cnc(N4C[C@H](O)C[C@H]4C(=O)O)s3)n2)c1` [Compound A-569]: the IC50 was 100 to 1000 nM.

Take `COC(=O)c1cccc(CN(C)c2ncc(-c3cccc(Nc4cc(C)ccn4)n3)s2)c1` [Compound A-581]: the IC50 lay within 100 to 1000 nM.

Take `COC(=O)N(CC(=O)O)Cc1ncc(-c2cccc(Nc3cc(C)ccn3)n2)s1` [Compound A-583]: the half-maximal inhibitory concentration (IC50) is 100 to 1000 nM.

For the molecule `COC(=O)N(CCC(=O)O)Cc1ncc(-c2cccc(Nc3cc(C)ccn3)n2)s1` [Compound A-584], the half-inhibitory concentration (IC50) fell in the range of 100 to 1000 nM.

On to `COC(=O)N(CCCC(=O)O)Cc1ncc(-c2cccc(Nc3cc(C)ccn3)n2)s1` [Compound A-585], for which the IC50 was in the range of 100 to 1000 nM.

`Cc1ccnc(Nc2cccc(-c3cnc(N4CCC[C@@H](c5nnn[nH]5)C4)s3)n2)c1` [Compound A-590, N-(4-methylpyridin-2-yl)-N-(6-{2-[(R)-3-(1H-tetrazol-5-yl)piperidin-1-yl]thiazol-5-yl}pyridin-2-yl)amine]: the half-maximal inhibitory concentration (IC50) was < 100 nM.

Turning to `Cc1ccnc(Nc2cccc(-c3cnc(CN4CCc5c(cccc5C(=O)O)C4)s3)n2)c1` [Compound A-608], the IC50 is 100 to 1000 nM.

Turning to `Cc1ccnc(Nc2cccc(-c3cnc(COCC(=O)O)s3)n2)c1` [Compound A-615, {5-[6-(4-methylpyridin-2-ylamino)pyridin-2-yl]thiazol-2-ylmethoxy}acetic acid hydrochloride], the half-inhibitory concentration (IC50) is < 100 nM.

As to `Cc1ccnc(Nc2cccc(-c3cnc(N(C)c4ccc(/C=C/C(=O)O)cc4)s3)n2)c1` [Compound A-618], the IC50 was in the range of 100 to 1000 nM.

`Cc1ccnc(Nc2cccc(-c3cnc(CSc4ccc(C(=O)O)cc4)s3)n2)c1` [Compound A-619]: the IC50 was in the range of 100 to 1000 nM.

For the molecule `Cc1ccnc(Nc2cccc(-c3cnc(N4CCCc5ccc(C(=O)O)cc54)s3)n2)c1` [Compound A-621], the IC50 is 100 to 1000 nM.

With `Cc1ccnc(Nc2cccc(-c3cnc(N(Cc4ccccc4)C[C@H]4CC[C@H](C(=O)O)CC4)s3)n2)c1` [Compound A-622, trans-4-[(N-benzyl-N-{5-[6-(4-methylpyridin-2-ylamino)pyridin-2-yl]thiazol-2-yl}amino)methyl]cyclohexanecarboxylic acid], the half-inhibitory concentration (IC50) was < 100 nM.

Turning to `Cc1cc(C)nc(Nc2cccc(-c3cnc(N4CCC(CC(=O)O)CC4)s3)n2)c1` [Compound A-623], the IC50 was 100 to 1000 nM.

Take `Cc1ccnc(Nc2cccc(-c3cnc(N(Cc4ccccc4)[C@H]4CC[C@H](CC(=O)O)CC4)s3)n2)c1` [Compound A-624, [trans-4-(N-benzyl-N-{5-[6-(4-methylpyridin-2-ylamino)pyridin-2-yl]thiazol-2-yl}amino)cyclohexyl]acetic acid]: the concentration for half-maximal inhibition (IC50) was < 100 nM.

As to `Cc1ccnc(Nc2cccc(-c3cnc(N(Cc4ccccc4)[C@H]4CC[C@@H](CC(=O)O)CC4)s3)n2)c1` [Compound A-625], the IC50 fell in the range of 100 to 1000 nM.

With `Cc1ccnc(Nc2cccc(-c3cnc(N(C[C@H]4CC[C@H](C(=O)O)CC4)C(C)C)s3)n2)c1` [Compound A-626, trans-4-[(N-isopropyl-N-{5-[6-(4-methylpyridin-2-ylamino)pyridin-2-yl]thiazol-2-yl}amino)methyl]cyclohexanecarboxylic acid], the half-maximal inhibitory concentration (IC50) was < 100 nM.

Turning to `Cc1ccnc(Nc2cccc(-c3cnc(N4CCCc5c(C(=O)O)cccc54)s3)n2)c1` [Compound A-627, 1-{5-[6-(4-methylpyridin-2-ylamino)pyridin-2-yl]thiazol-2-yl}-1,2,3,4-tetrahydroquinoline-5-carboxylic acid], the IC50 was < 100 nM.

Regarding `Cc1cccc(Nc2cccc(-c3cnc(N4CCC(CC(=O)O)CC4)s3)n2)n1` [Compound A-628], the IC50 lay within 100 to 1000 nM.

Take `Cc1ccc(Nc2cccc(-c3cnc(N4CCC(CC(=O)O)CC4)s3)n2)nc1` [Compound A-629]: the IC50 lay within 100 to 1000 nM.

Take `Cc1cccnc1Nc1cccc(-c2cnc(N3CCC(CC(=O)O)CC3)s2)n1` [Compound A-630]: the IC50 fell in the range of 100 to 1000 nM.

Regarding `Cc1ccnc(Nc2cccc(-c3cnc(N4CCC(=C(F)C(=O)O)CC4)s3)n2)c1` [Compound A-631, fluoro-(1-{5-[6-(4-methylpyridin-2-ylamino)pyridin-2-yl]thiazol-2-yl}piperidin-4-ylidene)acetic acid], the IC50 is < 100 nM.

Turning to `Cc1ccnc(Nc2cccc(-c3cnc(N(C)CCCCC(=O)O)s3)n2)c1` [Compound A-632, 5-(N-methyl-N-{5-[6-(4-methylpyridin-2-ylamino)pyridin-2-yl]thiazol-2-yl}amino)pentanoic acid], the half-inhibitory concentration (IC50) is < 100 nM.

In the case of `Cc1ccnc(Nc2cccc(-c3cnc(N4CCC(CC(=O)NS(C)(=O)=O)CC4)s3)n2)c1` [Compound A-633, N-[2-(1-{5-[6-(4-methylpyridin-2-ylamino)pyridin-2-yl]thiazol-2-yl}piperidin-4-yl)acetyl]methanesulfonamide], the IC50 is < 100 nM.

Consider `Cc1ccnc(Nc2cccc(-c3cnc(N(C)CCCC(=O)O)s3)n2)c1` [Compound A-634, 4-(N-methyl-N-{5-[6-(4-methylpyridin-2-ylamino)pyridin-2-yl]thiazol-2-yl}amino)butyric acid dihydrochloride], for which the IC50 is < 100 nM.

In the case of `O=C(O)CC1CCN(c2ncc(-c3cccc(Nc4cc(C(F)(F)F)ccn4)n3)s2)CC1` [Compound A-635, (1-{5-[6-(4-trifluoromethylpyridin-2-ylamino)pyridin-2-yl]thiazol-2-yl}piperidin-4-yl)acetic acid dihydrochloride], the IC50 is < 100 nM.

Regarding `O=C(O)CC1CCN(c2ncc(-c3cccc(Nc4ccc(Cl)cn4)n3)s2)CC1` [Compound A-636, (1-{5-[6-(5-chloropyridin-2-ylamino)pyridin-2-yl]thiazol-2-yl}piperidin-4-yl)acetic acid dihydrochloride], the IC50 was < 100 nM.

In the case of `COc1ccnc(Nc2cccc(-c3cnc(N4CCC(CC(=O)O)CC4)s3)n2)c1` [Compound A-637, (1-{5-[6-(4-methoxypyridin-2-ylamino)pyridin-2-yl]thiazol-2-yl}piperidin-4-yl)acetic acid dihydrochloride], the IC50 is < 100 nM.

On to `CN(c1ncc(-c2cccc(Nc3cc(C(F)(F)F)ccn3)n2)s1)[C@H]1CC[C@H](C(=O)O)CC1` [Compound A-638, trans-4-(N-methyl-N-{5-[6-(4-trifluoromethylpyridin-2-ylamino)pyridin-2-yl]thiazol-2-yl}amino)cyclohexanecarboxylic acid], for which the IC50 is < 100 nM.

Regarding `Cc1ccnc(Nc2cccc(-c3cnc(N(C)c4ccc(CCC(=O)O)cc4)s3)n2)c1` [Compound A-639, 3-[4-(N-methyl-N-{5-[6-(4-methylpyridin-2-ylamino)pyridin-2-yl]thiazol-2-yl}amino)phenyl]propionic acid], the 50% inhibitory concentration (IC50) is < 100 nM.

For the molecule `Cc1ccnc(Nc2cccc(-c3cnc(N(C)CCC/C=C/C(=O)O)s3)n2)c1` [Compound A-640, (E)-6-(N-methyl-N-{5-[6-(4-methylpyridin-2-ylamino)pyridin-2-yl]thiazol-2-yl}amino)hex-2-enoic acid dihydrochloride], the IC50 is < 100 nM.

A word on the IC50: it is the concentration that gives 50% inhibition.
